Source: publication PMC9504208, “Comprehensive Study of Antiretroviral Drug Permeability at the Cervicovaginal Mucosa via an In Vitro Model” (Pharmaceutics, 2022)
Read-outs that look alike come from different tables or passages of the source.

Legend:
[1] = ref DrugBank; cited from earlier work
[2] = Cell-associated drug and distribution between apical and basolateral compartments after absorptive permeability assay; assay type: in vitro ADME, human; settings: human, pH 7.4; 0.2% Poloxamer in receiver; read-out: Recovery from the apical compartment;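 note: transwell transport run over 2 h at 37 °C, radiolabelled drug quantified by liquid scintillation counting, with insert membranes also counted for mass balance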
Experimental: (§1) All transport experiments were undertaken over a 2-h period (unless stated) at 37 °C in HBSS supplemented with 1% HEPES buffer (Sigma-Aldrich) at pH 7.4 as reported [22]. HBSS was used to prevent the drug from binding to albumin present in cell culture media. All solutions were warmed to 37 °C and experiments were performed on a heated orbital shaker set at 50 RPM. […] Prior to the initiation of the drug transport experiments, TEER was measured. Cell layers were then washed twice with pre-warmed HBSS+1%HEPES transport buffer and equilibrated in the same solution for 30 min at 37 °C. […] The experiment was initiated when either the donor or receiver solutions were added to the respective compartments. Following the addition of donor solution, 20 µL samples were taken immediately from donor and receiver compartments, T = 0 (for assessment of initial concentration and background radioactivity, respectively). Transwells® were then placed on an orbital shaker set at 50 RPM. Samples, either 200 µL (apical) or 600 µL (basolateral), were taken from the receiver compartments at time points T = 30, T = 60, T = 90 and T = 120 and added to polyethylene liquid scintillation vials. Samples were taken in triplicate and replaced with equivalent volumes of the receiver solution. After final sampling, TEER was measured to confirm that there was no disruption to the epithelial barrier during the experimental procedure. Radioactive samples were mixed with 4 mL of scintillation fluid (Fisher Scientific, Waltham, MA, USA) and analysed using a liquid scintillation counter (Beckman Coulter, Brea, CA, USA). The semipermeable membranes of the Transwell® inserts were cut and also placed into scintillation vials for mass balance measurements.

HEC-1A cells = assay: as above; assay type: in vitro ADME, human
Experimental: as §1

HEC-1A barrier model = assay: Permeability of labelled drug across HEC-1A model on coadministration with a second ARV; assay type: in vitro ADME, human; settings: labelled drug 10 µM
Experimental: All transport experiments were undertaken over a 2-h period (unless stated) at 37 °C in HBSS supplemented with 1% HEPES buffer (Sigma-Aldrich) at pH 7.4 as reported [22]. HBSS was used to prevent the drug from binding to albumin present in cell culture media. All solutions were warmed to 37 °C and experiments were performed on a heated orbital shaker set at 50 RPM. […] Prior to the initiation of the drug transport experiments, TEER was measured. Cell layers were then washed twice with pre-warmed HBSS+1%HEPES transport buffer and equilibrated in the same solution for 30 min at 37 °C. […] The experiment was initiated when either the donor or receiver solutions were added to the respective compartments. Following the addition of donor solution, 20 µL samples were taken immediately from donor and receiver compartments, T = 0 (for assessment of initial concentration and background radioactivity, respectively). Transwells® were then placed on an orbital shaker set at 50 RPM. […] After final sampling, TEER was measured to confirm that there was no disruption to the epithelial barrier during the experimental procedure. Radioactive samples were mixed with 4 mL of scintillation fluid (Fisher Scientific, Waltham, MA, USA) and analysed using a liquid scintillation counter (Beckman Coulter, Brea, CA, USA). […]

[3] = Bi-directional permeability (Papp) across HEC-1A dual chamber (Transwell) barrier model; assay type: in vitro ADME; settings: human, pH 7.4, dapivirine 0.1–10 µM in 1% DMSO, read-out: Absorptive permeability Papp
Experimental: The apical chambers of 12-well polycarbonate and polyester systems (Corning Costar Corp, Cambridge, UK) were seeded with different densities of HEC-1A cells in 500 µL of the medium while 1500 µL culture medium was added to the basolateral chamber. -Medium in both chambers was changed every 48–72 h.

recovery at 2 h [2]: 19 to 21%
% Drug Distribution Apical (HEC-1A cells; 0.1 μM): 15.04 ± 0.55%
% Drug Distribution Basolateral (HEC-1A cells; 0.1 μM): 2.87 ± 0.26%
% Drug Distribution Cell-Associated (HEC-1A cells; 0.1 μM): 82.10 ± 0.30%
% Drug Distribution Apical (HEC-1A cells; 0.1 μM + Poloxamer): 16.06 ± 3.26%
% Drug Distribution Basolateral (HEC-1A cells; 0.1 μM + Poloxamer): 10.56 ± 1.26%
% Drug Distribution Cell-Associated (HEC-1A cells; 0.1 μM + Poloxamer): 73.37 ± 3.37%
% Drug Distribution Apical (HEC-1A cells; 1 μM): 14.72 ± 0.10%
% Drug Distribution Basolateral (HEC-1A cells; 1 μM): 2.13 ± 0.33%
% Drug Distribution Cell-Associated (HEC-1A cells; 1 μM): 83.15 ± 0.35%
% Drug Distribution Apical (HEC-1A cells; 1 μM + Poloxamer): 16.47 ± 2.86%
% Drug Distribution Basolateral (HEC-1A cells; 1 μM + Poloxamer): 11.01 ± 1.41%
% Drug Distribution Cell-Associated (HEC-1A cells; 1 μM + Poloxamer): 72.51 ± 2.86%
% Drug Distribution Apical (HEC-1A cells; 5 μM): 14.98 ± 0.76%
% Drug Distribution Basolateral (HEC-1A cells; 5 μM): 1.86 ± 0.41%
% Drug Distribution Cell-Associated (HEC-1A cells; 5 μM): 83.16 ± 1.15%
% Drug Distribution Apical (HEC-1A cells; 5 μM + Poloxamer): 17.47± 2.76%
% Drug Distribution Basolateral (HEC-1A cells; 5 μM + Poloxamer): 10.78 ± 1.18%
% Drug Distribution Cell-Associated (HEC-1A cells; 5 μM + Poloxamer): 71.75 ± 2.33%
% Drug Distribution Apical (HEC-1A cells; 10 μM): 14.52 ± 0.45%
% Drug Distribution Basolateral (HEC-1A cells; 10 μM): 2.09 ± 0.18%
% Drug Distribution Cell-Associated (HEC-1A cells; 10 μM): 83.39 ± 0.55%
% Drug Distribution Apical (HEC-1A cells; 10 μM + Poloxamer): 17.59 ± 3.41%
% Drug Distribution Basolateral (HEC-1A cells; 10 μM + Poloxamer): 11.72 ± 1.34%
% Drug Distribution Cell-Associated (HEC-1A cells; 10 μM + Poloxamer): 70.69 ± 2.76%
Recovery from the apical compartment after absorptive permeability assays (HEC-1A cells; % of initial concentration, no Poloxamer): 15–16%
Absorptive permeability on coadministration with tenofovir or darunavir (HEC-1A barrier model): not affected
Papp A→B at 2 h ([3]; 0.2% (w/v) Poloxamer in basolateral receiver): 9.52 to 11.5 ×10⁻⁶ cm/s
Papp A→B at 2 h ([3]; no Poloxamer in receiver): 2.5 to 2.61 ×10⁻⁶ cm/s
SMILES: Cc1cc(C)c(Nc2ccnc(Nc3ccc(C#N)cc3)n2)c(C)c1 [dapivirine, Dapivirine]
logP [1]: 5.6
